Measurements reported in patent publication US20220008566A1, “Pharmaceutical Composition Comprising a Radiolabeled GRPR Antagonist and a Surfactant” (Advanced Accelerator Applications International SA, priority 2018, published 2022).

What was measured:
[1] = test system: PC-3 cells; test: Therapeutic efficacy of 177Lu-NeoBOMB1 in PC-3 xenografted mice; assay type: in vivo, balb c nu/nu mice; settings: for time to reach a tumor size of 2000 mm^3: 1 week apart, extrapolated growth curves; for animals without any tumor regrowth after a complete response: n=15
Method: Male balb c nu/nu mice were subcutaneously inoculated on the right shoulder with 200 μL 4×10^6 PC-3 cells (American Type Culture Collection) in inoculation medium (⅓ Matrigel high concentration (Corning)+⅔ Hank's balanced salt solution (Thermofisher Scientific)). Four weeks post tumor cell inoculation when an average tumor size of 543+177 mm^3 was reached, animals were divided in four groups: control group (n=10) and therapy group 1-3 (n=15 per group). To determine the efficacy of ^177Lu-NeoBOMB1, animals received either 3 sham injections (control group), 3×30 MBq/300 pmol ^177Lu-NeoBOMB1 (group 1), 3×40 MBq/400 pmol ^177Lu-NeoBOMB1 (group 2) or 3×60 MBq/600 pmol ^177Lu-NeoBOMB1 (group 3) under isoflurane/O2 anesthesia. Injections were administered intravenously and injections were given 1 week apart.
(§1) In both studies, animal weight and/or tumor size was measured bi-weekly. When tumor size was ≥2000 mm^3 or a decrease in animal weight ≥20% within 48 hours was observed, animals were removed from the study. In the efficacy study, animals were followed until the maximum allowed age of 230 days was reached.
The tumor doubling times were determined by fitting an exponential growth function to the tumor volume over time in the control group. In the therapy groups an interval with exponential tumor volume decline was fitted with onset of regrowth after the nadir time. The growth curves were extrapolated beyond the censoring time points for mice with too large tumors (>2000 mm^3) to determine average growth statistics. Tumor growth delay times were individually determined by comparing the times needed to reach the maximum tumor size of 2000 mm^3 with the mean time found in the control group.
Prism software (version 5.01, GraphPad Software) was used for statistical analyses. P values […] were considered statistically significant. The difference in tumor volume growths and delay times for the 4 groups were analyzed with the One-way ANOVA test with Bonferroni's multiple comparison test. Curve fitting was performed according to the least/square fit with the Pearson R^2 to quantify its goodness.

[2] = test system: non-tumor bearing balb c nu/nu male mice; test: Kidney and pancreas toxicity of 177Lu-NeoBOMB1 treatment; assay type: in vivo; settings: for histopathology of the kidneys: 24 weeks after therapy
Method: To determine the effect of treatment on pancreas and kidney tissue, non-tumor bearing balb c nu/nu male mice received the same treatment as the animals included in the efficacy study. At 2 different time points after the last therapeutic injection (12 weeks and 24 weeks p.i.) animals were euthanized and pancreas and kidney tissue was collected for pathological analysis.
as §1
Pancreatic and kidney tissue collected for pathological analysis was formalin fixed and paraffin embedded. Hematoxylin and eosin staining was performed on […] thick tissue slices using the Ventana Symphony™ H&E protocol (Ventana), to determine differences in tissue structure between the 4 treatment groups. In total 4 tissue slices, […] apart from each other were evaluated of each organ. The hematoxylin and eosin staining's were evaluated by experienced pathologists.

[3] = Dosimetry: estimated absorbed dose to tumor, pancreas and kidneys (RADAR realistic mouse model)
Source text: The RADAR realistic mouse model (Keenan M A, Stabin M G, Segars W P, Fernald M J. RADAR realistic animal model series for dose assessment. J Nucl Med. 2010; 51:471-476) with a weight of 25 g and data from previously published biodistribution and pharmacokinetic studies (Dalm S U, Bakker I L, de Blois E, et al. 68Ga/^177Lu-NeoBOMB1, a Novel Radiolabeled GRPR Antagonist for Theranostic Use in Oncology. J Nucl Med. 2017; 58:293-299) were used to calculate the dose to the tumor, pancreas and kidneys, when animals were treated with 3×30 MBq/300 pmol, […] or 3×60 MBq/600 pmol ^177Lu-NeoBOMB1. The biodistribution data of our previously published paper (Dalm S U, Bakker I L, de Blois E, et al. ^68Ga/^177Lu-NeoBOMB1, a Novel Radiolabeled GRPR Antagonist for Theranostic Use in Oncology. J Nucl Med. 2017; 58:293-299) were fitted with exponential curves to define the time-activity curve in the tumor and organs. The time integrated activities for ^177Lu were obtained by integrating these exponential curves folded with the 177Lu decay curve (T1/2=6.647 d). Absorbed doses per administered activities were obtained by multiplying with the organ S-values from Keenan et al. (Keenan M A, Stabin M G, Segars W P, Fernald M J. RADAR realistic animal model series for dose assessment. J Nucl Med. 2010; 51:471-476) or by using the spherical node S-values (Stabin M G, Konijnenberg M W. Re-evaluation of absorbed fractions for photons and electrons in spheres of various sizes. J Nucl Med. 2000; 41:149-160) for a 340 mg tumor.
An estimation was made of the radioactivity dose to the tumor, pancreas and kidneys after treatment with 3×30 MBq/300 pmol, 3×40 MBq/400 pmol or 3×60 MBq/600 pmol ^177Lu-NeoBOMB1 (See Table 3 below). For this it was assumed that tumor and organ uptake was similar after each injection.

[4] = 3×30 MBq/300 pmol, 1st injection
[5] = 3×30 MBq/300 pmol, 2nd injection
[6] = 3×30 MBq/300 pmol, 3rd injection
[7] = 3×40 MBq/400 pmol, 1st injection
[8] = 3×40 MBq/400 pmol, 2nd injection
[9] = 3×40 MBq/400 pmol, 3rd injection
[10] = 3×60 MBq/600 pmol, 1st injection
[11] = 3×60 MBq/600 pmol, 2nd injection
[12] = 3×60 MBq/600 pmol, 3rd injection

CC(C)CC(CC(C)C)NC(=O)[C@H](Cc1cnc[nH]1)NC(=O)CNC(=O)[C@@H](NC(=O)[C@H](C)NC(=O)[C@H](Cc1c[nH]c2ccccc12)NC(=O)[C@H](CCC(N)=O)NC(=O)[C@@H](Cc1ccccc1)NC(=O)COCC(=O)Nc1ccc(CNC(=O)CN2CCN(CC(=O)O)CCN(CC(=O)O)CCN(CC(=O)O)CC2)cc1)C(C)C [^177Lu-NeoBOMB1, metal not drawn]
therapy efficacy ([1]; all treatment groups vs control group): effective
Median survival ([1]; group 1, 3×30 MBq/300 pmol): 82 days
time to reach a tumor size of 2000 mm^3 ([1]; group 1, 3×30 MBq/300 pmol i.v.): 97 ± 59 days
animals without any tumor regrowth after a complete response ([1]; group 1, 3×30 MBq/300 pmol): two
Median survival ([1]; group 2, 3×40 MBq/400 pmol): 89 days
time to reach a tumor size of 2000 mm^3 ([1]; group 2, 3×40 MBq/400 pmol i.v.): 103 ± 66 days
animals without any tumor regrowth after a complete response ([1]; group 2, 3×40 MBq/400 pmol): one
Median survival ([1]; group 3, 3×60 MBq/600 pmol): 99 days
time to reach a tumor size of 2000 mm^3 ([1]; group 3, 3×60 MBq/600 pmol i.v.): 95 ± 26 days
histopathology of the kidneys, lymphocyte infiltration ([2]; 12 and 24 weeks after last injection, in control as well as treated animals, not related to therapy): small areas with lymphocyte infiltration
histopathology of the pancreas ([2]; H&E, 12 and 24 weeks after last injection): no tissue damage or other abnormalities
animal weight ([2]; all groups, follow-up up to 24 weeks): no critical decrease in weight
histopathology of the kidneys ([2]; group 3 (3×60 MBq/600 pmol), both animals): mild chronic inflammatory response
histopathology of the kidneys ([2]; lowest dose (3×30 MBq/300 pmol), ID: 864, unlikely related to therapy): atrophy and fibrosis were observed in the kidneys of only one animal
decrease in weight within 48 h ([2]; one animal from Group 1 (ID: 869)): less than 10%
Cumulative absorbed dose, Kidney [3, 4]: 1.7 Gy
Cumulative absorbed dose, Pancreas [3, 4]: 7.9 Gy
Cumulative absorbed dose, Tumor [3, 4]: 17 Gy
Cumulative absorbed dose, Kidney [3, 5]: 3.4 Gy
Cumulative absorbed dose, Pancreas [3, 5]: 16 Gy
Cumulative absorbed dose, Tumor [3, 5]: 34 Gy
Cumulative absorbed dose, Kidney [3, 6]: 5.1 Gy
Cumulative absorbed dose, Pancreas [3, 6]: 32 Gy
Cumulative absorbed dose, Tumor [3, 6]: 68 Gy
Cumulative absorbed dose, Kidney [3, 7]: 2.3 Gy
Cumulative absorbed dose, Pancreas [3, 7]: 11 Gy
Cumulative absorbed dose, Tumor [3, 7]: 23 Gy
Cumulative absorbed dose, Kidney [3, 8]: 4.5 Gy
Cumulative absorbed dose, Pancreas [3, 8]: 21 Gy
Cumulative absorbed dose, Tumor [3, 8]: 46 Gy
Cumulative absorbed dose, Kidney [3, 9]: 6.8 Gy
Cumulative absorbed dose, Pancreas [3, 9]: 42 Gy
Cumulative absorbed dose, Tumor [3, 9]: 91 Gy
Cumulative absorbed dose, Kidney [3, 10]: 3.4 Gy
Cumulative absorbed dose, Pancreas [3, 10]: 16 Gy
Cumulative absorbed dose, Tumor [3, 10]: 34 Gy
Cumulative absorbed dose, Kidney [3, 11]: 6.8 Gy
Cumulative absorbed dose, Pancreas [3, 11]: 32 Gy
Cumulative absorbed dose, Tumor [3, 11]: 68 Gy
Cumulative absorbed dose, Kidney [3, 12]: 10 Gy
Cumulative absorbed dose, Pancreas [3, 12]: 64 Gy
Cumulative absorbed dose, Tumor [3, 12]: 137 Gy
